One data set deals with Common cocklebur. Kind of data set: Ex37 PRE 2,4-DC + atrazine, % control 28 DAT, Colby. The format is in vivo, Xanthium strumarium. The source says:
(§1) S-metolachlor (DUAL II MAGNUM®, 82.4%) at 525 g ai/h plus atrazine at 560 g ai/h was included as a standard for comparison. […] Thereafter flats were watered and fertilized routinely.

The subject of the next data set is Velvetleaf. The data set is described as above. The note with it: PRE. The format is in vivo, Abutilon theophrasti.
Description: as §1

Another data set concerns Wild buckwheat. Kind of data set: Ex11 PRE 2,4-DC + clomazone, % control 28 DAT, Colby. The format is in vivo, Polygonum convolvulus. The source says: The crop tested was Oilseed rape.
Additional treatments included applications of metazachlor (Butisan®, 43.1%) at 750 g ai/ha, napropamide (Devrinol DF®, 50%) at 1260 g, and dimethachlor (Teridox®, 48%) at 1000 g. […] Treatments were applied just after the planting of tall morningglory, wild mustard, common lambsquarters, Italian ryegrass, wild buckwheat, redroot pigweed, common chickweed, corn poppy, and oilseed rape.
Flats were watered and fertilized routinely after treatment application. Each treatment was replicated three times.

In a further data set the test system is Cheat. Kind of data set: Ex18 PRE 2,4-DC + clomazone, % control 28 DAT, Colby. The format is in vivo, Bromus secalinus. The source says: (§2) Additional treatments included application of metazachlor (Butisan®, 43.1%) at 750 g ai/ha, napropamide (Devrinol DF®, 50%) at 1260 g ai/ha, and dimethachlor (Teridox®, 48%) at 1000 g ai/ha. […] Treatments were applied just after the seeding of annual bluegrass, cheat, wild oat, quackgrass, field violet, blackgrass, littleseed canarygrass, silky windgrass, yellow foxtail, and goosegrass. […] Flats were watered and fertilized routinely after treatment application. Each treatment was replicated three times.

Data set [1] relates to weeds; Sugarcane (var. CTC 20). Nature of the data set: Ex17 PRE greenhouse. The format is in vivo. The note with it: weed and rate in the words. Here is the method: (§3) In this example a study was conducted to determine weed efficacy and sugarcane injury when 2,4 DC or isoxaflutole are applied either alone or tank-mix as preemergence against the weeds: Ivyleaf morningglory (Ipomoea hederacea, IPOHE), hairy beggartickss (Bidens pilosa, BIDPI), yellow nutsedge (Cyperus esculentus, CYPES), large crabgrass (Digitaria sanguinalis, DIGSA), and redroot pigweed (Amaranthus retroflexus, AMARE). The crop tested in this study was Sugarcane (var. CTC 20).
(§4) To determine weed efficacy and sugarcane selectivity, 2,4 DC (SC 36%) and isoxaflutole (Balance Flexx®, 20%) were applied PRE either alone or as tank-mix partners at rates mentioned below. 2,4 DC was applied at 500, 750, and 1000 g ai/ha while isoxaflutole was applied at 80, 100, and 120 g ai/ha. […] Treatments were applied PRE to sugarcane (var. CTC 20), ivyleaf morningglory, hairy beggarticks, yellow nutsedge, large crabgrass, and redroot pigweed. Weed species were planted in fiber flats (6″×10″) containing Pennington soil. Soil was watered before application and watered lightly after application. Flats were watered and fertilized routinely after treatment application.

Data set [2] has as its system weeds. Kind of data set: Ex18 PRE greenhouse. The format is in vivo. Particulars: weed and rate in the words.
Description: as §2

Data set [3] relates to weeds. Nature of the data set: Ex10 PRE greenhouse. The format is in vivo. Particulars: 28 DAT, weed and rate in the words. The source says: Treatments 1-12 of 2,4-DC and aclonifen tank-mix combinations follow same rates listed above. […] Sulfentrazone (Spartan 4F® 39.6%) at 280 g ai/ha, pendimethalin (Prowl 3.3®EC, 37.4%) at 784 g ai/ha, or S-metolachlor (Dual II Magnum® 82.4%) at 1084 g ai/ha were applied as commercial standards. Treatments were replicated 3 times and flats were watered after planting but before the treatment and lightly watered after treatment application. Thereafter flats were watered and fertilized routinely. […] Shepherd's-purse was rated at 21 and 28 DAT only, due to delayed emergence.

The next data set relates to common chickweed. Kind of data set: Ex14 POST 2,4-DC + bromoxynil, % control 28 DAT, Colby. The format is in vivo, Stellaria media. From the text:
(§5) The study further assessed post crop safety on Wheat and Barley.
(§6) Nonionic surfactant at 0.5% (v/v) was included with commercial standards application. No adjuvant was applied with any other treatments. All plant species were direct seeded into 3″ plastic pots using metro-mix as growth media. At treatment application common lambsquarters was 1.75″, common chickweed was 2″, wild mustard was 2.25″, wild oat was 5.5″, wild buckwheat was 2-5″, Italian ryegrass was 2-3″, wheat was 5.5″, and barley was 4.5″ in height. Plants were watered well before application and not watered 24 h after application. Plants were watered and fertilized routinely after treatment application. Each treatment was replicated four times.

For another data set, the system named is weeds; Wheat and Barley. Nature of the data set: Ex14 POST greenhouse. The format is in vivo. The note with it: 28 DAT, rate in the words.
Description: as §5, §6

A further data set concerns weeds; Wheat and canola. Kind of data set: Ex29 PRE greenhouse. The format is in vivo. The note with it: 28 DAT. From the text:
The tested weeds include Italian ryegrass (Lolium perenne. multiflorum, LOLMU), wild mustard (Sinapis arvensis, SINAR), annual bluegrass (Poa annua, POAAN), wild oat (Avena fatua, AVEFA), blackgrass (Alopecurus myosuroides, ALOMY), common lambsquarters (Chenopodium album, CHEAL), littleseed canarygrass (Phalaris minor, PHAMI), common chickweed (Stellaria media, STEME), corn poppy (Papaver rhoeas, PAPRH), redroot pigweed (Amaranthus retroflexus, AMARE), silky windgrass (Apera spica-venti, APSEV), wild buckwheat (Polygonum convolvulus, POLCO). The crops teased were Wheat and canola.
Treatments were applied before the emergence of Italian ryegrass, wild oat, wild buckwheat, blackgrass, littleseed canarygrass, common chickweed, common lambsquarters, corn poppy, silky windgrass, redroot pigweed, wild mustard, annual bluegrass, canola, and wheat. […] Flats were watered and fertilized routinely after treatment application.

Data set [4] has as its system weeds. Nature of the data set: Ex13 PRE greenhouse. The format is in vivo. Particulars: 28 DAT, weed and rate in the words. From the text:
(§7) Pyroxasulfone (KIH-485, 85%) at 74.3 g ai/ha, pendimethalin (Prowl 3.3EC, 37.4%) at 1200 g ai/ha, or a premix of chlorsulfuron plus metsulfuron-methyl (Report Extra, 75%) at 15.8 g ai/ha were applied as commercial standards. […] Treatments were replicated 3 times and flats were watered after planting before the treatment and lightly watered after treatment application. Thereafter flats were watered and fertilized routinely.

In data set [5] the test system is weeds; Wheat, barley, and oil seed rape (OSR). Nature of the data set: Ex19 PRE greenhouse. The format is in vivo. Particulars: rate in the words. From the text:
In this study, the crops tested included Wheat, barley, and oil seed rape (OSR).
To determine weed efficacy and wheat, barley or OSR selectivity, 2,4 DC (CS 36.7%) and Diflufenican (CS 19.5%) were applied preemergence either alone or as tank-mix partners at the following rates. 2,4 DC was applied at 125, 170, 210 and 250 g ai/ha while Diflufenican was applied at 50, 75, and 100 g ai/ha. Pyroxasulfone (KIH-485, 85%) at 74.3 g ai/ha, pendimethalin (Prowl 3.3EC, 37.4%) at 1200 g ai/ha, or a premix of chlorsulfuron plus metsulfuron-methyl (Report Extra, 75%) at 15.8 g ai/ha were applied as commercial standards.
Herbicides included as standards for comparison were pyroxasulfone, pendimethalin, and a pre mix of chlorsulfuron plus metsulfuron methyl, all applied at labeled rates as indicated above. Treatments were replicated 3 times. […] Thereafter flats were watered and fertilized routinely.

The next data set relates to Blackgrass. Nature of the data set: Ex13 PRE 2,4-DC + diflufenican, % control 28 DAT, Colby. The format is in vivo, Alopecurus myosuroides.
Description: as §7

In the next data set the test system is Common lambsquarters. Described as above. The format is in vivo, Chenopodium album.
Description: as §7

The test system of another data set is Wild mustard. Described as above. The format is in vivo, Sinapis arvensis.
Description: as §7

Another data set deals with Ivyleaf morningglory. Nature of the data set: Ex17 PRE 2,4 DC + isoxaflutole, % control 28 DAT, Colby. The format is in vivo, Ipomoea hederacea. As to the method:
as §3
as §4, with “Weed species were planted in fiber flats (6″×10″) containing Pennington soil.” left out

The test system of a further data set is weeds; Sugarcane (CTC20). Kind of data set: Ex23 PRE greenhouse. The note with it: 28 DAT, 85 g ai/ha. As to the method: (Ipomoea spp). The tested crop in this study was Sugarcane (CTC20).
Sugarcane was direct seeded into 6″ plastic pots using 3-4″ sugarcane setts, oriented bud up, with bud leaf shield removed. 2,4 DC and sulfentrazone were applied alone or combined as tank-mix at each rate mentioned below. […] Treatments were replicated 3 times. […] Thereafter flats were watered and fertilized routinely. […] Visual percent sugarcane injury was recorded at 21 and 28 DAT, using a scale of 0 (no injury, observed as bleaching, stunting or necrosis) to 100 (complete plant death).

Consider `CCNc1nc(Cl)nc(NC(C)C)n1` [Atrazine], for which the Y with Common cocklebur (Atrazine alone 140 g ai/ha) is 57%; in the data set on Common cocklebur (Atrazine alone 280 g ai/ha) it was 92%; with Common cocklebur (Atrazine alone 560 g ai/ha), 97%. Further, the “Y (% control, atrazine alone)” value in the data set on Velvetleaf (atrazine 140 g ai/ha) is on record as 53%; in the data set with Velvetleaf (atrazine 280 g ai/ha), 63%; in the data set on Velvetleaf (atrazine 560 g ai/ha), 96%.
Regarding `CC1(C)CON(Cc2ccccc2Cl)C1=O` [Clomazone, clomazone, reference compound], the Y is recorded as 70% with Wild buckwheat (clomazone alone 60 g ai/ha); 80% in the data set with Wild buckwheat (clomazone alone 90 g ai/ha); 79% in the data set with Wild buckwheat (clomazone alone 120 g ai/ha); 40% with Cheat (clomazone alone 60 g ai/ha); 75% with Cheat (clomazone alone 90 g ai/ha); 97% in the data set on Cheat (clomazone alone 120 g ai/ha). Also, the “weed control in words” value in [1] was “at 1120 g controlled hairy beggarticks, large crabgrass, and redroot pigweed”; in the data set with weeds [2], “controlled goosegrass at all rates and cheat at 120 g”.
Turning to `Nc1c([N+](=O)[O-])ccc(Oc2ccccc2)c1Cl` [Aclonifen, aclonifen], in the data set on weeds [3], the “weed control in words” value is “alone at all three rates controlled common lambsquarters, quackgrass, redroot pigweed, littleseed canarygrass, annual bluegrass, blackgrass, and shepherd's purse”.
`N#Cc1cc(Br)c(O)c(Br)c1` [Bromoxynil, bromoxynil, reference compound]: the Y in the data set on common chickweed (bromoxynil alone 140 g ai/ha) turned out to be 35%; in the data set on common chickweed (bromoxynil alone 210 g ai/ha), 65%; in the data set with common chickweed (bromoxynil alone 280 g ai/ha), 38%. Also, the “weed control / crop safety in words” value with weeds; Wheat and Barley was “alone controlled wild buckwheat, wild mustard, and common lambsquarters at all rates and was safe on both crops at all rates”.
For `COCCN(C(=O)CCl)c1c(C)cccc1C` [Dimethachlor, dimethachlor], in the data set with weeds [2], the “weed control in words” value is “controlled annual bluegrass, quackgrass, littleseed canarygrass, silky windgrass, yellow foxtail, and goosegrass”. The injury to canola with weeds; Wheat and canola (at 100 g) is recorded as 18%. Moreover, in the data set with weeds; Wheat and canola (weed, crop, rate in the words), the “weed control / crop safety in words” value was “alone provided control of lambsquarters at 1000 g ai/ha”.
Regarding `CCC(CC)Nc1c([N+](=O)[O-])cc(C)c(C)c1[N+](=O)[O-]` [Pendimethalin, pendimethalin], the entries for the “weed control in words” value in the data set on weeds [3] and in the data set with weeds [4] were “at 784 g gave control of 5 out of 10 weeds” and “at 1200 g gave control of 6 out of 10 weeds”, respectively. In addition, in data set [5], the “weed control / crop safety in words” value was “controlled corn poppy and field violet and was safe on barley”.
Regarding `O=C(Nc1ccc(F)cc1F)c1cccnc1Oc1cccc(C(F)(F)F)c1` [Diflufenican, diflufenican, reference compound], the Y in the data set with Blackgrass (diflufenican alone 50 g ai/ha) is 33%; in the data set on Blackgrass (diflufenican alone 75 g ai/ha) it was 17%; with Blackgrass (diflufenican alone 100 g ai/ha), 27%; with Common lambsquarters (diflufenican alone 50 g ai/ha) it was 65%; in the data set with Common lambsquarters (diflufenican alone 75 g ai/ha) it was 73%; with Common lambsquarters (diflufenican alone 100 g ai/ha), 85%. For the same compound, the Y was found to be 42% in the data set with Wild mustard (diflufenican alone 50 g ai/ha), 89% in the data set with Wild mustard (diflufenican alone 75 g ai/ha) and 100% in the data set with Wild mustard (diflufenican alone 100 g ai/ha). Further, in the data set on weeds [4], the “weed control in words” value is “controlled common lambsquarters at 100 g only”.
Consider `CS(=O)(=O)c1cc(C(F)(F)F)ccc1C(=O)c1cnoc1C1CC1` [Isoxaflutole, isoxaflutole, reference compound], for which the Y was 69% in the data set with Ivyleaf morningglory (isoxaflutole alone 80 g ai/ha), 73% with Ivyleaf morningglory (isoxaflutole alone 100 g ai/ha) and 81% with Ivyleaf morningglory (isoxaflutole alone 120 g ai/ha). Further, in [1], the “weed control in words” value is “alone at 80 g or higher rates controlled hairy beggarticks, large crabgrass, and redroot pigweed”. Also, in the data set with weeds; Sugarcane (CTC20), the sugarcane injury was determined as 12%.

Values taken from patent US12616203B2, “Use of 3-isoxazolidinones compounds as selective herbicides” (FMC Corporation, priority 2014, dated 2026).
